Assay results published in patent publication US6274715A, “Tricyclic erythromycin derivatives” (priority 1997, dated 2001).
In brackets after ≈: the same amount, converted by molar mass.

Tests used:
Format in all cases: cell-based
[1] = test system: STAPHYLOCOCCUS AUREUS NCTC10649M; assay: In vitro antibacterial activity, MIC, BHI agar dilution; conditions: S. aureus NCTC10649M, unit assumed
[2] = test system: STREPTOCOCCUS PYOGENES PIU 2548; assay: as above; conditions: S. pyogenes PIU 2548, unit assumed
[3] = test system: PSEUDOMONAS AERUGINOSA K799/61; assay: as above; conditions: P. aeruginosa K799/61, unit assumed
[4] = test system: STREPTOCOCCUS PYOGENES 930; assay: as above; conditions: S. pyogenes 930, unit assumed
ESCHERICHIA COLI H560 = assay: as above; conditions: E. coli H560, unit assumed
[5] = test system: PROVIDENCIA STUARTII CMX 640; conditions: P. stuartii CMX 640; BHI agar; unit assumed
ESCHERICHIA COLI SS = assay: In vitro antibacterial activity, MIC, BHI agar dilution; conditions: E. coli SS, unit assumed
ESCHERICHIA COLI JUHL = conditions: E. coli JUHL; BHI agar; unit assumed
STR[…] 508 = assay: In vitro antibacterial activity, MIC, BHI agar dilution; conditions: S. agalactiae CMX 508, unit assumed
How it was run: (§1)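 MIC was read visually as the lowest drug concentration showing no growth, a slight haze or sparsely isolated colonies relative to a compound-free BHI plate. Plates held serial aqueous dilutions in BHI agar, were spot-inoculated with 1:100 (or 1:10) culture dilutions and incubated 20 to 24 hours at 35-37° C.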

EN[…] ATCC 8043 = assay: as above; conditions: E. faecium ATCC 8043, unit assumed
How it was run: as §1

M[…] ATCC 4698 = assay: as above; conditions: M. luteus ATCC 4698, unit assumed
How it was run: as §1

M[…] ATCC 9341 = assay: as above; conditions: M. luteus ATCC 9341, unit assumed
How it was run: as §1

[6] = test system: KLEBSIELLA PNEUMONIAE ATCC 8045; assay: as above; conditions: K. pneumoniae ATCC 8045, unit assumed
ESCHERICHIA COLI DC-2 = assay: as above; conditions: E. coli DC-2, unit assumed
[7] = test system: PSEUDOMONAS AERUGINOSA DPHD-5263; assay: as above; conditions: P. aeruginosa DPHD-5263, unit assumed
[8] = test system: PSEUDOMONAS AERUGINOSA DPHD-2862; assay: as above; conditions: P. aeruginosa DPHD-2862, unit assumed
[9] = test system: STREPTOCOCCUS BOVIS A-5169; assay: as above; conditions: S. bovis A-5169, unit assumed
CANDIDA ALBICANS CCH 442 = assay: as above; conditions: C. albicans CCH 442, unit assumed
[10] = test system: STAPHYLOCOCCUS AUREUS CMX 642A; assay: as above; conditions: S. aureus CMX 642A, unit assumed
[11] = test system: MYCOBACTERIUM SMEGMATIS ATCC 114; assay: as above; conditions: M. smegmatis ATCC 114, unit assumed
[12] = test system: STAPHYLOCOCCUS EPIDERMIDIS 3519; conditions: S. epidermidis 3519; BHI agar; unit assumed
PSEUDOMONAS CEPACIA 296I = assay: In vitro antibacterial activity, MIC, BHI agar dilution; conditions: P. cepacia 296I, unit assumed
[13] = test system: PSEUDOMONAS AERUGINOSA 5007; assay: as above; conditions: P. aeruginosa 5007, unit assumed
[14] = test system: PSEUDOMONAS AERUGINOSA K799/WT; assay: as above; conditions: P. aeruginosa K799/WT, unit assumed
[15] = test system: STAPHYLOCOCCUS AUREUS A5177; assay: as above; conditions: S. aureus A5177, unit assumed
[16] = test system: PSEUDOMONAS AERUGINOSA BMH10; assay: as above; conditions: P. aeruginosa BMH10, unit assumed
[17] = test system: STAPHYLOCOCCUS AUREUS CMX 553; assay: as above; conditions: S. aureus CMX 553, unit assumed
[18] = test system: STAPHYLOCOCCUS AUREUS A-5278; assay: as above; conditions: S. aureus A-5278, unit assumed
[19] = test system: STAPHYLOCOCCUS AUREUS 1775; assay: as above; conditions: S. aureus 1775, unit assumed
[20] = test system: STAPHYLOCOCCUS AUREUS ATCC 6538P; assay: as above; conditions: S. aureus ATCC 6538P, 35-37° C., 20 to 24 hours, unit assumed
[21] = test system: ENTEROBACTER AEROGENES ATCC 13048; assay: as above; conditions: E. aerogenes ATCC 13048, unit assumed
[22] = test system: STREPTOCOCCUS PYOGENES EES61; assay: as above; conditions: S. pyogenes EES61, unit assumed
ESCHERICHIA COLI KNK 437 = conditions: E. coli KNK 437; BHI agar; unit assumed

With `CC[C@H]1OC(=O)[C@H](C)C(=O)[C@H](C)[C@@H](O[C@@H]2O[C@H](C)C[C@H](N(C)C)[C@H]2O)[C@](C)(OC)C[C@@H](C)C2=NC3CN(CC(OC)OC)CC3N3C(=O)O[C@@]1(C)[C@H]3[C@H]2C` (stereo partly drawn) [Example 127] the MIC [1] was 1.56 µg/mL (≈ 2.03 µM), the MIC [2] was 1.56 µg/mL (≈ 2.03 µM) and the MIC [3] was 3.1 µg/mL (≈ 4.04 µM). The MIC [4] was over 100 µg/mL, the MIC (ESCHERICHIA COLI H560) was over 100 µg/mL and the MIC [5] was over 100 µg/mL. It also gave an MIC (ESCHERICHIA COLI SS) of 1.56 µg/mL (≈ 2.03 µM), an MIC (ESCHERICHIA COLI JUHL) of over 100 µg/mL and an MIC (STR[…] 508) of 0.2 µg/mL (≈ 0.261 µM). The MIC (EN[…] ATCC 8043) was 0.39 µg/mL (≈ 0.508 µM), the MIC (M[…] ATCC 4698) was 1.56 µg/mL (≈ 2.03 µM) and the MIC (M[…] ATCC 9341) was 0.39 µg/mL (≈ 0.508 µM). For the same molecule, the MIC [6] was over 100 µg/mL, the MIC (ESCHERICHIA COLI DC-2) was over 100 µg/mL and the MIC [7] was over 100 µg/mL. For the same molecule, the MIC [8] was over 100 µg/mL, the MIC [9] was 0.1 µg/mL (≈ 0.13 µM) and the MIC (CANDIDA ALBICANS CCH 442) was over 100 µg/mL. The MIC [10] was 3.1 µg/mL (≈ 4.04 µM), the MIC [11] was 25 µg/mL (≈ 32.6 µM) and the MIC [12] was 1.56 µg/mL (≈ 2.03 µM). For the same molecule, the MIC (PSEUDOMONAS CEPACIA 296I) was over 100 µg/mL, the MIC [13] was over 100 µg/mL and the MIC [14] was over 100 µg/mL. It also gave an MIC [15] of 1.56 µg/mL (≈ 2.03 µM), an MIC [16] of over 100 µg/mL and an MIC [17] of 1.56 µg/mL (≈ 2.03 µM). The MIC [18] was over 100 µg/mL, the MIC [19] was over 100 µg/mL and the MIC [20] was 3.1 µg/mL (≈ 4.04 µM). The MIC [21] was over 100 µg/mL, the MIC [22] was 0.1 µg/mL (≈ 0.13 µM) and the MIC (ESCHERICHIA COLI KNK 437) was over 100 µg/mL.

With `CC[C@H]1OC(=O)[C@H](C)C(=O)[C@H](C)[C@@H](O[C@@H]2O[C@H](C)C[C@H](N(C)C)[C@H]2O)[C@](C)(OC)C[C@@H](C)C2=NCC(CN(C)Cc3ccccc3)N3C(=O)O[C@@]1(C)[C@H]3[C@H]2C` (stereo partly drawn) [Example 132] the MIC [1] was 0.39 µg/mL (≈ 0.506 µM), the MIC [2] was 0.78 µg/mL (≈ 1.01 µM) and the MIC [3] was 1.56 µg/mL (≈ 2.02 µM). It also gave an MIC [4] of 50 µg/mL (≈ 64.9 µM), an MIC (ESCHERICHIA COLI H560) of 50 µg/mL (≈ 64.9 µM) and an MIC [5] of over 100 µg/mL. It also gave an MIC (ESCHERICHIA COLI SS) of 0.78 µg/mL (≈ 1.01 µM), an MIC (ESCHERICHIA COLI JUHL) of 100 µg/mL (≈ 130 µM) and an MIC (STR[…] 508) of 0.02 µg/mL (≈ 0.0259 µM). For the same molecule, the MIC (EN[…] ATCC 8043) was 0.1 µg/mL (≈ 0.13 µM), the MIC (M[…] ATCC 4698) was 0.2 µg/mL (≈ 0.259 µM) and the MIC (M[…] ATCC 9341) was 0.05 µg/mL (≈ 0.0649 µM). The MIC [6] was over 100 µg/mL, the MIC (ESCHERICHIA COLI DC-2) was 100 µg/mL (≈ 130 µM) and the MIC [7] was over 100 µg/mL. The MIC [8] was over 100 µg/mL, the MIC [9] was 0.01 µg/mL (≈ 0.013 µM) and the MIC (CANDIDA ALBICANS CCH 442) was over 100 µg/mL. For the same molecule, the MIC [10] was 0.39 µg/mL (≈ 0.506 µM), the MIC [11] was 0.78 µg/mL (≈ 1.01 µM) and the MIC [12] was 0.39 µg/mL (≈ 0.506 µM). For the same molecule, the MIC (PSEUDOMONAS CEPACIA 296I) was over 100 µg/mL, the MIC [13] was over 100 µg/mL and the MIC [14] was 100 µg/mL (≈ 130 µM). It also gave an MIC [15] of 0.39 µg/mL (≈ 0.506 µM), an MIC [16] of over 100 µg/mL and an MIC [17] of 0.39 µg/mL (≈ 0.506 µM). It also gave an MIC [18] of 100 µg/mL (≈ 130 µM), an MIC [19] of 100 µg/mL (≈ 130 µM) and an MIC [20] of 0.39 µg/mL (≈ 0.506 µM). The MIC [21] was over 100 µg/mL, the MIC [22] was 0.02 µg/mL (≈ 0.0259 µM) and the MIC (ESCHERICHIA COLI KNK 437) was over 100 µg/mL.

In the case of `CCC1OC(=O)C(C)C(=O)C(C)C(OC2OC(C)CC(N(C)C)C2O)C(C)(OC)CC(C)C2=NCC(C)(CN(C)Cc3ccccc3)N3C(=O)OC1(C)C3C2C` (stereo not drawn) [Example 134], the MIC [1] is reported as 0.78 µg/mL (≈ 0.994 µM), the MIC [2] is reported as 0.78 µg/mL (≈ 0.994 µM) and the MIC [3] is reported as 1.56 µg/mL (≈ 1.99 µM). For the same molecule, the MIC [4] was over 100 µg/mL, the MIC (ESCHERICHIA COLI H560) was 50 µg/mL (≈ 63.7 µM) and the MIC [5] was over 100 µg/mL. For the same molecule, the MIC (ESCHERICHIA COLI SS) was 1.56 µg/mL (≈ 1.99 µM), the MIC (ESCHERICHIA COLI JUHL) was 100 µg/mL (≈ 127 µM) and the MIC (STR[…] 508) was 0.02 µg/mL (≈ 0.0255 µM). For the same molecule, the MIC (EN[…] ATCC 8043) was 0.1 µg/mL (≈ 0.127 µM), the MIC (M[…] ATCC 4698) was 0.78 µg/mL (≈ 0.994 µM) and the MIC (M[…] ATCC 9341) was 0.05 µg/mL (≈ 0.0637 µM). For the same molecule, the MIC [6] was over 100 µg/mL, the MIC (ESCHERICHIA COLI DC-2) was 100 µg/mL (≈ 127 µM) and the MIC [7] was over 100 µg/mL. For the same molecule, the MIC [8] was over 100 µg/mL, the MIC [9] was 0.01 µg/mL (≈ 0.0127 µM) and the MIC (CANDIDA ALBICANS CCH 442) was over 100 µg/mL. For the same molecule, the MIC [10] was 0.78 µg/mL (≈ 0.994 µM), the MIC [11] was 0.78 µg/mL (≈ 0.994 µM) and the MIC [12] was 0.78 µg/mL (≈ 0.994 µM). It also gave an MIC (PSEUDOMONAS CEPACIA 296I) of over 100 µg/mL, an MIC [13] of over 100 µg/mL and an MIC [14] of over 100 µg/mL. The MIC [15] was 0.78 µg/mL (≈ 0.994 µM), the MIC [16] was over 100 µg/mL and the MIC [17] was 0.78 µg/mL (≈ 0.994 µM). The MIC [18] was over 100 µg/mL, the MIC [19] was over 100 µg/mL and the MIC [20] was 0.78 µg/mL (≈ 0.994 µM). For the same molecule, the MIC [21] was over 100 µg/mL, the MIC [22] was 0.02 µg/mL (≈ 0.0255 µM) and the MIC (ESCHERICHIA COLI KNK 437) was over 100 µg/mL.
